One data set addresses h5-HT4 (Homo sapiens, UniProt Q13639). The data set is described as follows: 5-HT4R intrinsic activity functional assay. To be noted: h5-HT4, functional assay at CEREP.
For data set [1] the following is noted: SPECT tracer ref 19; cited from earlier work.
Data set [2] deals with 5-HT4R (Mus musculus, UniProt P97288). Nature of the data set: In vivo competition with [125I]1, ex vivo autoradiography of mouse brain.
In data set [3] the target is 5-HT4R (Rattus norvegicus, UniProt Q62758). The data set is described as follows: In vitro autoradiographic competition with [125I]1 on rat brain sections. The format is binding.
Sequence of 5-HT4R (Rattus norvegicus, UniProt Q62758) (Q62758 whole entry): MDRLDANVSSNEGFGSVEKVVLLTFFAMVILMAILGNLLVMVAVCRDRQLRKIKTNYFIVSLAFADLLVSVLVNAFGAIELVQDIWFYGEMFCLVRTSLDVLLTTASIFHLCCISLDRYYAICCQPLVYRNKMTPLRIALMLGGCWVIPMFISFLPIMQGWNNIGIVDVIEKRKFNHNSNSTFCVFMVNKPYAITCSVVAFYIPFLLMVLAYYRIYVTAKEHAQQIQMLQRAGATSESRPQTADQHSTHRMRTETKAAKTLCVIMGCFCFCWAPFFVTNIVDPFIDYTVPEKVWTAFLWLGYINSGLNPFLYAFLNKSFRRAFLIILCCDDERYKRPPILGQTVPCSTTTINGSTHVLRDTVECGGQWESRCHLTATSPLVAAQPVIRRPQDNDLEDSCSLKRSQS

Sequence of h5-HT4 (Q13639 whole entry): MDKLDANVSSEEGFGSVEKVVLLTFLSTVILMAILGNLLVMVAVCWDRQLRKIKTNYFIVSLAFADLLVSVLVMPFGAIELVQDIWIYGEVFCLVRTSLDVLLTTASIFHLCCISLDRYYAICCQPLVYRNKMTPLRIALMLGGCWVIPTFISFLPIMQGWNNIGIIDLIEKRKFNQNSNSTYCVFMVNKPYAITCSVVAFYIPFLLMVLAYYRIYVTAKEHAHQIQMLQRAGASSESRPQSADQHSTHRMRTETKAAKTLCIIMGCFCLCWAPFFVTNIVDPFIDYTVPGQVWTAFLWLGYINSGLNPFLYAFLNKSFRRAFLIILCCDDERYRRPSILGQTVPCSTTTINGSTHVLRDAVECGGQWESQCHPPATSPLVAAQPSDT
Sequence of 5-HT4R (Mus musculus, UniProt P97288) (P97288 whole entry): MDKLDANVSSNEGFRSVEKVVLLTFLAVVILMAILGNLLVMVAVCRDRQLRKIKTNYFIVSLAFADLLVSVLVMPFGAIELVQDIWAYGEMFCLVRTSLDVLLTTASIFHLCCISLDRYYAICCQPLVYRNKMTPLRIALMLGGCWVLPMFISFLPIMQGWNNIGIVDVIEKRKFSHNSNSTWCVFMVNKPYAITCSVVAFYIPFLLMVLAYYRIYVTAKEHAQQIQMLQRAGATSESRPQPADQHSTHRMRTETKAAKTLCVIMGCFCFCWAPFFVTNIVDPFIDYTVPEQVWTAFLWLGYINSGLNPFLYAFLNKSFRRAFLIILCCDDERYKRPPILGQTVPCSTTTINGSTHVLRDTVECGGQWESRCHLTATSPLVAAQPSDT

For `CCCN1CCC(COc2nc3c(I)cccc3c3ccccc23)CC1` [Compound 11a, 4-Iodo-6-(1-propylpiperidin-4-yl)methyloxyphenanthridine], the “efficacy (intrinsic activity)” value at h5-HT4 is listed as “full antagonists”.
Same read-out and setting: in the case of `CCCN1CCC(COc2nc3c(I)cccc3c3ncccc23)CC1` [Compound 11b, 7-Iodo-5-(1-propylpiperidin-4-yl)methyloxybenzo[h]-1,6-naphthyridine] it was “full antagonists”; in that of `CCCN1CCC(COc2nc3c(F)cccc3c3ncccc23)CC1` [Compound 4v, 7-Fluoro-5-(1-propylpiperidin-4-yl)methyloxybenzo[h]-1,6-naphthyridine], “full antagonists”.
For the compound `CCCCN1CCC(COC(=O)c2cc([123I])c(N)c3c2OCCO3)CC1` [[^123I]1, (1-butylpiperidin-4-yl)methyl-8-amino-7-iodo[^123I]-2,3-dihydrobenzo[b][1,4]dioxine-5-carboxylate], in data set [1], the brain penetration result is reported as “low brain penetration” and the metabolism result was “rapid metabolism”.
On to `Fc1cccc2c1nc(OCC1CCN(CCCc3ccc(I)cc3)CC1)c1cccnc12` [Compound 11d, 7-Fluoro-5-{1-[3-(4-iodophenyl)propyl]piperidin-4-yl}methyloxybenzo[h]-1,6-naphthyridine], for which the “efficacy (intrinsic activity)” value on h5-HT4 was “full antagonists”. Moreover, on 5-HT4R [2] (i.v. 50 µg/kg), the “blood brain barrier crossing” value is on record as “able to cross the blood brain barrier”. Further, the “specific binding of [125I]1 ex vivo” value at 5-HT4R [2] (i.v. co-injection of 50 µg/kg 11d, compared to [125I]1 alone) was “markedly reduced”. Also, the “5-HT4R-specific [125I]1 radioactivity in autoradiograms” value at 5-HT4R [3] (10 pM of 11d with 100 pM [125I]1, rat brain sections) is listed as “decrease in the 5-HT4R-specific radioactivity”; at 5-HT4R [3] (1 nM of 11d with 100 pM [125I]1, rat brain sections), “almost complete abolishment of the signal”.

The record behind these values is paper PMC3509320 (Journal of medicinal chemistry, 2012).
